Target: T1, human Proteasome (Homo sapiens, UniProt P28074)
T1 construct: purchased Immatics, Tübingen
Test: chymotryptic activity of the 20S proteasome (Suc-LLVT-AMC substrate, fluorescence)
Type: biochemical
Settings: for human Proteasome IC50: result given in words
Description: The chymotryptic activity of the 20S proteasome (Immatics, Tübingen) was determined using a Tecan Ultra plate reader and Suc-LLVT-AMC as substrate (Bachem). In the wells of a black 96 well polypropylene plate, 2 µl of the respective inhibitor dissolved in DMSO were mixed with 50 µl substrate solution (25 mM HEPES pH 7.5 at 20°C, 0.5 mM EDTA and Suc-LLVT-AMC (in the appropriate concentration) and the reaction was initiated by adding 150 µl proteasome solution (1.3 µg/ml 20S proteasome in 25 mM HEPES pH 7.5 at 20°C, 0.5 mM EDTA, 0.033% (w/v) SDS). Substrate hydrolysis was followed by fluorescence spectroscopy (excitation wavelength: 360 nm; emission wavelength: 465 nm) for 20 min at 30°C and initial velocities were calculated and expressed as change in relative fluorescence units (RFU) per second.

Row | SMILES | human Proteasome IC50 | IC50 (unit printed as µm) [µM]
1 | O=C1CN(N=CC(Cc2ccccc2)NC(=O)C(Cc2ccc3ccccc3c2)NC(=O)C(Cc2ccc(F)cc2)NC(=O)OCc2ccccc2)C(=O)N1 (stereo not drawn) [Compound 9] | nanomolar | 
2 | CC(C)(C)OC(=O)NC(Cc1ccc(Br)cc1)C(=O)NC(Cc1ccc2ccccc2c1)C(=O)NC(C=NN1CC(=O)NC1=O)Cc1ccccc1 (stereo not drawn) [Compound 7] | nanomolar | 
3 | O=C1CN(/N=C/C(Cc2ccccc2)NC(=O)c2csc(-c3ccc4c(c3)CCO4)n2)C(=O)N1 (stereo not drawn) [Compound 10] |  | 3.5

Source: patent EP2284178A2, “Inhibitors of cancer cell, T-cell and keratinocyte proliferation” (4SC AG, priority 2005, dated 2007)
